# Tests used:
# rat hepatocytes = assay: In vitro metabolic stability in rat hepatocytes; format: in vitro ADME; details: 1 μM test compound, calculated from half-life
# Procedure: Investigation of In Vitro Metabolic Stability in Rat Hepatocytes (Including Calculation of Hepatic In Vivo Blood Clearance (CL))
# Hepatocytes from Han Wistar rats were isolated via a 2-step perfusion method. After perfusion, the liver was carefully removed from the rat: the liver capsule was opened and the hepatocytes were gently shaken out into a Petri dish with ice-cold WME. The resulting cell suspension was filtered through sterile gaze in 50 ml falcon tubes and centrifuged at 50×g for 3 min at room temperature.
# The cell pellet was resuspended in 30 ml WME and centrifuged through a Percoll® gradient for 2 times at 100×g. The hepatocytes were washed again with Williams' medium E (WME) and resuspended in medium containing 5% FCS. Cell viability was determined by trypan blue exclusion.
# For the metabolic stability assay liver cells were distributed in WME containing 5% FCS to glass vials at a density of 1.0×10^6 vital cells/m. The test compound was added to a final concentration of 1 μM. During incubation, the hepatocyte suspensions were continuously shaken and aliquots were taken at 2, 8, 16, 30, 45 and 90 min, to which equal volumes of cold methanol were immediately added. Samples were frozen at −20° C. over night, after subsequently centrifuged for 15 minutes at 3000 rpm and the supernatant was analyzed with an Agilent 1200 HPLC-system with LCMS/MS detection.
# The half-life of a test compound was determined from the concentration-time plot. From the half-life the intrinsic clearances were calculated. Together with the additional parameters liver blood flow, amount of liver cells in vivo and in vitro. The hepatic in vivo blood clearance (CL) and the maximal oral bioavailability (Fmax) was calculated. The following parameter values were used: Liver blood flow—4.2 L/h/kg rat; specific liver weight—32 g/kg rat body weight; liver cells in vivo—1.1×10^8 cells/g liver, liver cells in vitro—0.5×10^6/ml.
# human kinase Mps-1 = biological target: T1, human kinase Mps-1 (Homo sapiens, UniProt P33981); assay: Mps-1 Kinase Assay (TR-FRET); format: biochemical; details: 10 μM ATP
# T1 construct: N-terminally GST-tagged human full length recombinant Mps-1 kinase; purchased Invitrogen, Karslruhe, Germany PV4071
# T1 sequence (P33981 1-857): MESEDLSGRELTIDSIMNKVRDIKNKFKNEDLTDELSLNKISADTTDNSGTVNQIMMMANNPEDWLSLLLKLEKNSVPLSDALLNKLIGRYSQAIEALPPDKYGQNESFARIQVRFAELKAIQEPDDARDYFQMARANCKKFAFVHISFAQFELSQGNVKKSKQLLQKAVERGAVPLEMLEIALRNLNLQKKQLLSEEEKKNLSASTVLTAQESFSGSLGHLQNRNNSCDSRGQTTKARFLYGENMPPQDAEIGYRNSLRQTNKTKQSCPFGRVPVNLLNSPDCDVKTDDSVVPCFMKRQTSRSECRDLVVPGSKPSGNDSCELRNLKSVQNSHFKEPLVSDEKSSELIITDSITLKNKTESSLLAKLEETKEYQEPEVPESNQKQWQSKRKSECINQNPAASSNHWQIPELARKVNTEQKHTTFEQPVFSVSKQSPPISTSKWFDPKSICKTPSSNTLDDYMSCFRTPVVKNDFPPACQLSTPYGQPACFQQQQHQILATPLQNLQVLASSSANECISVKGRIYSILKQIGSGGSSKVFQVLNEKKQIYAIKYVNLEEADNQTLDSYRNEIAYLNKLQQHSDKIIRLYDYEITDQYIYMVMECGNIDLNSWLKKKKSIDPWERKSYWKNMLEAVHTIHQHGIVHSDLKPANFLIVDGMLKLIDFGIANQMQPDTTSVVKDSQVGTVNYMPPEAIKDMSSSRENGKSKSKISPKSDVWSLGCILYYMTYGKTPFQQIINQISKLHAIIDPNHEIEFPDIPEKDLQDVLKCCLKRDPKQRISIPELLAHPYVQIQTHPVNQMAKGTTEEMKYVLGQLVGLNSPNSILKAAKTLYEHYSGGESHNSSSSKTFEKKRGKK
# Procedure: The human kinase Mps-1 phosphorylates a biotinylated substrate peptide. Detection of the phosphorylated product is achieved by time-resolved fluorescence resonance energy transfer (TR-FRET) from Europium-labelled anti-phospho-Serine/Threonine antibody as donor to streptavidin Labelled with cross-linked allophycocyanin (SA-XLent) as acceptor. Compounds are tested for their inhibition of the kinase activity.
# N-terminally GST-tagged human full length recombinant Mps-1 kinase (purchased from Invitrogen, Karslruhe, Germany, cat. no PV4071) was used. As substrate for the kinase reaction a biotinylated peptide of the amino-acid sequence […] (C-terminus in amide form, purchased from Biosynthan GmbH, Berlin) was used.
# The concentration of Mps-1 in the assay was adjusted to the activity of the enzyme lot and was chosen appropriate to have the assay in the linear range, typical enzyme concentrations were in the range of about 1 nM (final conc. in the 5 μl assay volume).
# The resulting mixture was incubated 1 h at 22° C. to allow the binding of the phosphorylated peptide to the anti-phospho(Ser/Thr)-Europium-antibody. Subsequently the amount of phosphorylated substrate was evaluated by measurement of the resonance energy transfer from the Europium-labelled anti-phospho(Ser/Thr) antibody to the Streptavidin-XLent.
Structure (SMILES),Fmax (maximal oral bioavailability) (rat hepatocytes),IC50 (human kinase Mps-1)
"Cc1cc(-c2cnc3c(NCCC(F)(F)F)cc(C(O)c4cccc(F)c4O)nn23)ccc1C(=O)NC1CC1 (racemic) [Compound A3, (RS)—N-Cyclopropyl-4-{6-[(3-fluoro-2-hydroxyphenyl)(hydroxy)methyl]-8-[(3,3,3-trifluoropropyl)amino]imidazo[1,2-b]pyridazin-3-yl}-2-methylbenzamide]",18%,0.2 nM
"Cc1cc(-c2cnc3c(NCCC(F)(F)F)cc(C(C)(O)c4cccc(F)c4O)nn23)ccc1C(=O)NC1CC1 (racemic) [Compound A4, (RS)—N-Cyclopropyl-4-{6-[1-(3-fluoro-2-hydroxyphenyl)-1-hydroxyethyl]-8-[(3,3,3-trifluoropropyl)amino]imidazo[1,2-b]pyridazin-3-yl}-2-methylbenzamide]",36%,0.3 nM
"Cc1cc(-c2cnc3c(NCCC(F)(F)F)cc(C(F)c4cccc(F)c4)nn23)ccc1C(=O)NC1CC1 (racemic) [Compound A5, (RS)—N-Cyclopropyl-4-{6-[fluoro(3-fluorophenyl)methyl]-8-[(3,3,3-trifluoropropyl)amino]imidazo[1,2-b]pyridazin-3-yl}-2-methylbenzamide]",49%,0.7 nM
"COc1ccc(Cc2cc(NCCC(F)(F)F)c3ncc(-c4ccc(C(=O)NC5CC5)c(C)c4)n3n2)cc1F [Comparative Example 1, N-Cyclopropyl-4-{6-(3-fluoro-4-methoxybenzyl)-8-[(3,3,3-trifluoropropyl)amino]imidazo[1,2-b]pyridazin-3-yl}-2-methylbenzamide, reference compound]",29%,
"Cc1cc(-c2cnc3c(NCCC(F)(F)F)cc(Cc4cccc(F)c4O)nn23)ccc1C(=O)NC1CC1 [Comparative Example 2, N-Cyclopropyl-4-{6-(3-fluoro-2-hydroxybenzyl)-8-[(3,3,3-trifluoropropyl)amino]imidazo[1,2-b]pyridazin-3-yl}-2-methylbenzamide, reference compound]",3%,
"Cc1cc(-c2cnc3c(NCCC(F)(F)F)cc(Cc4cccc(F)c4)nn23)ccc1C(=O)NC1CC1 [Comparative Example 3, N-Cyclopropyl-4-{6-(3-fluorobenzyl)-8-[(3,3,3-trifluoropropyl)amino]imidazo[1,2-b]pyridazin-3-yl}-2-methylbenzamide, reference compound]",43%,
"COc1cccc(Cc2cc(NCCC(F)(F)F)c3ncc(-c4ccc(C(=O)NC5CC5)c(C)c4)n3n2)c1 [Comparative Example 4, N-cyclopropyl-4-{6-(3-methoxybenzyl)-8-[(3,3,3-trifluoropropyl)amino]imidazo[1,2-b]pyridazin-3-yl}-2-methylbenzamide, reference compound]",18%,
"COc1ccc(Cc2cc(NCCC(F)(F)F)c3ncc(-c4ccc(C(=O)NC5CC5)c(C)c4)n3n2)cc1 [Comparative Example 5, N-Cyclopropyl-4-{6-(4-methoxybenzyl)-8-[(3,3,3-trifluoropropyl)amino]imidazo[1,2-b]pyridazin-3-yl}-2-methylbenzamide, reference compound]",35%,
"C=C(c1ccc(OC)c(F)c1)c1cc(NCCC(F)(F)F)c2ncc(-c3ccc(C(=O)NC4CC4)c(C)c3)n2n1 [Compound A1, N-Cyclopropyl-4-{6-[1-(3-fluoro-4-methoxyphenyl)ethenyl]-8-[(3,3,3-trifluoropropyl)amino]imidazo[1,2-b]pyridazin-3-yl}-2-methylbenzamide]",39%,
"Cc1cc(-c2cnc3c(NCCC(F)(F)F)cc(C(F)(F)c4cccc(F)c4)nn23)ccc1C(=O)NC1CC1 [Compound A6, N-Cyclopropyl-4-{6-[difluoro(3-fluorophenyl)methyl]-8-[(3,3,3-trifluoropropyl)amino]imidazo[1,2-b]pyridazin-3-yl}-2-methylbenzamide]",70%,
"COc1ccc(C(=O)c2cc(NCCC(F)(F)F)c3ncc(-c4ccc(C(=O)NC5CC5)c(C)c4)n3n2)cc1F [Compound A13, N-Cyclopropyl-4-{6-(3-fluoro-4-methoxybenzoyl)-8-[(3,3,3-trifluoropropyl)amino]imidazo[1,2-b]pyridazin-3-yl}-2-methylbenzamide]",75%,
"COc1ccc(C(F)(F)c2cc(NCCC(F)(F)F)c3ncc(-c4ccc(C(=O)NC5CC5)c(C)c4)n3n2)cc1 [Compound A16, N-Cyclopropyl-4-{6-[difluoro(4-methoxyphenyl)methyl]-8-[(3,3,3-trifluoropropyl)amino]imidazo[1,2-b]pyridazin-3-yl}-2-methylbenzamide]",56%,
"Cc1cc(-c2cnc3c(NCCC(F)(F)F)cc(C4(c5cccc(F)c5F)CC4)nn23)ccc1C(=O)NC1CC1 [Compound A17, N-Cyclopropyl-4-{6-[1-(2,3-difluorophenyl)cyclopropyl]-8-[(3,3,3-trifluoropropyl)amino]imidazo[1,2-b]pyridazin-3-yl}-2-methylbenzamide]",50%,
"C=C(c1cc(NCCC(F)(F)F)c2ncc(-c3ccc(C(=O)NC4CC4)c(C)c3)n2n1)c1cc(F)ccc1F [Compound A19, N-Cyclopropyl-4-{6-[1-(2,5-difluorophenyl)vinyl]-8-[(3,3,3-trifluoropropyl)amino]imidazo[1,2-b]pyridazin-3-yl}-2-methylbenzamide]",,0.6 nM
"Cc1cc(-c2cnc3c(NCCC(F)(F)F)cc(C4(c5cc(F)ccc5F)CC4)nn23)ccc1C(=O)NC1CC1 [Compound A20, N-Cyclopropyl-4-{6-[1-(2,5-difluorophenyl)cyclopropyl]-8-[(3,3,3-trifluoropropyl)amino]imidazo[1,2-b]pyridazin-3-yl}-2-methylbenzamide]",,0.8 nM
"Cc1cc(-c2cnc3c(NCCC(F)(F)F)cc(C(F)(F)c4cc(F)ccc4F)nn23)ccc1C(=O)NC1CC1 [Compound A21, N-Cyclopropyl-4-{6-[(2,5-difluorophenyl)(difluoro)methyl]-8-[(3,3,3-trifluoropropyl)amino]imidazo[1,2-b]pyridazin-3-yl}-2-methylbenzamide]",,0.5 nM
"Cc1cc(-c2cnc3c(NCCC(F)(F)F)cc(C4(c5cc(F)ccc5O)CC4)nn23)ccc1C(=O)NC1CC1 [Compound A23, N-cyclopropyl-4-{6-[1-(5-fluoro-2-hydroxyphenyl)cyclopropyl]-8-[(3,3,3-trifluoropropyl)amino]imidazo[1,2-b]pyridazin-3-yl}-2-methylbenzamide]",40%,
